Reference: US6139840A, “Methods of eliciting an antibody response using flea protease proteins and homologs thereof” (priority 1997, dated 2000)

Assays:
[1] = tested on: soluble fed and unfed flea midgut preparations; format: biochemical; conditions: substrate BAPNA
Text: Pellets from the centrifugation step were also collected and resuspended for analysis. Also prepared were whole flea lysates.

adult fleas = test: Flea feeding system: viability and fecundity of fleas fed blood containing protease inhibitors; format: in vivo; conditions: for Adult Survival Female / Adult Survival Male / Adult Survival Total / Fecundity Days 1-7: percent of corresponding control group
Method: This Example evaluates the effect of a number of protease inhibitors on flea viability and fecundity in a flea feeding system as described by Wade et al. ibid.
Protease inhibitor compounds were tested in groups of 3 to 6 including appropriate control groups. Inhibitors were not tested in groups of common inhibition types. Rather, they were tested in groups based on the diluent needed to dissolve them. (AEBSF, aprotinin, bestatin, leupeptin, phosphoramidon, soybean trypsin inhibitor and soybean trypsin/chymotrypsin inhibitor were dissolved in water; E-64 and pepstatin were dissolved in ethanol). This reduced the number of control (diluent only) groups needed within a particular assay. Inhibitor concentrations were chosen such that the lower concentration used was within the range recommended by the supplier for that inhibitor. The higher concentration was typically 10 times above the lower concentration and was used to look for dose response.
The general protocol for all of the assays was as follows: Approximately 2000 newly emerged adult fleas were placed in feeding chambers to feed on normal blood for about 24 to 48 hr. The fleas were prefed for two reasons: The first was to be certain that only fleas that would feed in the feeding system were used in the comparative study.
The prefed fleas were placed in "minifeeder" feeding chambers at a ratio of about 80 female fleas to about 20 male fleas for a total of about 100 fleas per chamber. Actual total number of fleas per chamber varied from about 90 to 125 fleas. […] Three chambers were prepared for each experimental and control group. A fresh blood meal containing the appropriate inhibitor in 3 ml total volume was placed on each chamber daily through the 7 day extent of an assay.
On days 3, 5, and 7 of the assay, surviving adult fleas were transferred to clean chambers. The contents of the original chambers were dissolved in about 40 ml of PBS (phosphate-buffered saline) in a 50 ml Falcon tube. The contents of a given tube were then filtered through a preweighed #1 Whatman filter disk inserted into a vacuum filter. The 50 ml tube and the filter funnel were rinsed with distilled water which was then passed through the filter. Once the chamber contents had been filtered, dead adult fleas were removed from the filter paper and placed in a labelled tube so that they could be counted and sexed. The filter paper was then placed into a preweighed 12×75 polypropylene tube and dried in the SpeedVac for 2.5 hr with the heater on. After drying the filter paper was weighed. The weight of the filter paper and tube was subtracted to obtain the dry weight of the eggs and this value was converted to an estimated number of eggs using the formula y=41384.361x+162.37, where x=dry weight of eggs.
On day 7, adult fleas that had survived the study were frozen, counted and sexed. The numbers were added to the number of male and female fleas that had died during the assay to verify the number of male and female fleas in each chamber at the start of the study.
Female, male and total adult flea survival were calculated for all experimental and control groups on days 3, 5, and 7 of each assay. Additionally, the number of eggs per surviving female was calculated on days 3, 5 and 7. Female fleas found dead on a given collection date were included in the total number of egg-laying females for the days between that date and the previous collection date, providing a conservative estimate of fecundity. Fecundity values were averaged for the three collection dates to obtain an average for each group over 7 days.
Results of these studies are presented below in Table 1 and FIG. 6 through FIG. 9. All survival and fecundity values are presented below as a percent of control value.

[2] = at the concentrations tested in blood meal

| Compound | inhibition of ability to cleave BAPNA (proteolytic activity) [1] | Adult Survival Female (adult fleas; 2 μg/ml in blood meal) [%] | Adult Survival Male (adult fleas; 2 μg/ml in blood meal) [%] | Adult Survival Total (adult fleas; 2 μg/ml in blood meal) [%] | Fecundity Days 1-7 (adult fleas; 2 μg/ml in blood meal) [%] | Adult Survival Female (adult fleas; 20 μg/ml in blood meal) [%] | Adult Survival Male (adult fleas; 20 μg/ml in blood meal) [%] | Adult Survival Total (adult fleas; 20 μg/ml in blood meal) [%] | Fecundity Days 1-7 (adult fleas; 20 μg/ml in blood meal) [%] | effect on adult viability (adult fleas; [2]) | effect on fecundity (adult fleas; [2]) |
| --- | --- | --- | --- | --- | --- | --- | --- | --- | --- | --- | --- |
| Aprotinin | ~100% | 103.2 | 104.9 | 103.3 | 83.2 | 100.0 | 101.7 | 99.9 | 84.2 | no significant effect | no significant effect |
| O=S(=O)(F)Cc1ccccc1 [PMSF, phenylmethane-7-sulfonyl fluoride] | about 50% |  |  |  |  |  |  |  |  |  |  |
